Data published in patent US20260216054A1, “COMPOSITIONS COMPRISING EPILOBIUM FLEISCHERI EXTRACT FOR TREATING SIGNS OF AGING” (DSM IP Assets B.V., priority 2023, published 2026).

Test system: 70% normal and 30% senescent human dermal fibroblasts
Assay: Senolytic activity study (SA-beta-galactosidase, flow cytometry)
Format: cell-based
Conditions: 1.5 μM, 72 hours
Description: Normal and senescent cell populations were obtained from normal human dermal fibroblasts. For the normal cell population, the cells were seeded in cell culture medium (Dulbecco's Modified Eagle Medium supplemented with 10% serum and 1% antibiotics) and allowed to adhere and proliferate in a humidified cell incubator maintaining 37° C. and 5% CO2. These were then passaged or collected when 90% confluent. For the senescent cell population, the normal fibroblast cells were at this stage shortly exposed to 200 μM H2O2 followed by normal cell culture medium. Several days later, the cells were treated again with H2O2 to obtain a fully senescent population. Both normal and senescent populations were mixed into a 70% normal and 30% senescent cell population and represented the treatment population. Afterward, the 70% normal and 30% senescent cell population were seeded in cell culture medium and allowed to adhere in the cell incubator. […] Afterward, senescence-associated beta-galactosidase was visualized—a well-known senescence marker—in the cells to quantify the senescence levels using flow cytometry. […] Data are normalized to the untreated control (30% senescent cells and 70% normal cells) and expressed as the mean±SD (n=4).

Significant senolytic effect (versus CTRL): Yes
SMILES: CC1(C)CCC(c2ccc(Cl)cc2)=C(CN2CCN(c3ccc(C(=O)NS(=O)(=O)c4ccc(N[C@H](CCN5CCOCC5)CSc5ccccc5)c(S(=O)(=O)C(F)(F)F)c4)cc3)CC2)C1 [Navitoclax]
Senescent cells (%) (70% normal/30% senescent mix, normalized to untreated control (30%), mean, n=4): 10%
